# Reference: patent US6773702B2, “Use of combretastatin A4 and its prodrugs as an immune enhancing therapy” (OXiGENE, Inc., priority 2000, dated 2004)
# Experiments:
# [1] = system: spleen cells isolated from BN7005-H1D2 tumor-bearing rats; experiment: In vitro proliferative response of spleen cells after 20 days of in vivo CA4P at 5 or 2 mg/kg (FIG. 2A); design: species or system rat; conditions: 20 days daily treatment, H1D2-WT or IL-18 transfectant stimulator cells
# Protocol: FIG. 2A illustrates the in vitro immune proliferative response of spleen cells isolated from BN7005-H1D2 tumor-bearing rats previously treated with a combination of active immunomodulatory gene therapy (IL-18 and IL-12 transfected tumor cells) and CA4P (5 or 2 mg/kg) in vivo. The cells were stimulated with untransfected (H1D2-WT) tumor cells or IL-18 (H1D2-IL18) transfected tumor cells after 20 days of tumor growth.
# Results of in vitro studies indicate that the dose of Combretastatin A4 Prodrug that is administered is critical for obtaining a specific immunological effect. […] Proliferation of spleen immune cells was monitored by 3-H-thymidine incorporation (CPM) after 5 days incubation. […] Eight μm cryosections were examined directly in a fluorescence microscope and vessel volume was determined (Springer, MP., Ip, TK., and Blau, HM). Angiogenesis monitored by perfusion with space-filling microbead suspension (Mol. Ther. 1: 82-87, 2000). […]
# In a second experiment represented in FIG. 2A, wild type H1D2-WT or IL-18 transfected (H1D2-IL-18) cells were used as immune stimulants to assess the in vitro proliferative response of spleen cells isolated from tumor-bearing rats previously treated in vivo with 2 or 5 mg/kg combretastatin A4 prodrug for 20 days. The spleen cells were cultured in RPMI medium and their growth monitored by the incorporation of tritiated thymidine into DNA. […]
# [2] = system: NO production by spleen cells of tumor-free immunized rats; experiment: NO production by spleen cells (Griess technique) after in vitro preincubation with CA4P; type: cell-based, rat; conditions: for Nitric oxide production into supernatant: unseparated spleen cells (L0), CA4-P 0.15 μg/ml preincubated 3 h
# Protocol: One of the main suppressive molecules produced by macrophages is nitric oxide (NO) and direct assays of the generation of NO released into the medium of parallel spleen cell cultures (containing both adherent and nonadherent cells) after exposure to SEA and CA4P were performed as previously described (Hegardt et al, Cancer Immunol & Immunother (2001) 50: 491-501).
# The proliferative response of 3×10^5 admixed non-adherent cells (e.g. T-cells) stimulated for 4 days with SEA (0.05 ng/ml) was estimated as in Example 1. […] This effect is interpreted as due to a decrease of the suppressive effect of the IL-12 and IL-18 activated macrophages on T cell responses. Direct assays of the generation of NO released into the medium of parallel […] spleen cell cultures after exposure to SEA and CA4P were performed as previously described (Hegardt et al, 2001).
# [3] = system: spleen cells of tumor-free rats immunized with BN7005-H1D2-IL-12 and IL-18 cells; experiment: Proliferative T cell response (thymidine incorporation) after in vitro preincubation of spleen cells with CA4P; type: cell-based, rat
# Description: Macrophages were isolated as plastic-adherent spleen cells from tumor-free rats vaccinated with IL-18 and IL-12 transfected tumor cells. […] This effect is interpreted as due to a decrease of the suppressive effect of IL-12 and IL-18 activated macrophages on T cell responses.
# The observation of selective macrophage toxicity is further supported by the observation that CA4P treatment of unseparated spleen cells recapitulates this anti-tumor immune response. FIG. 3 illustrates the in vitro immune proliferative response of unseparated spleen cells isolated from tumor-free rats previously vaccinated with IL-18 and IL-12 transfected tumor cells. Spleen cells were stimulated with untransfected (H1D2-WT) tumor cells (FIG. 3A) or the superantigen SEA polyclonal activator (FIG. 3B) after preincubation with or without CA4P (0.15 μg/ml).
# As described in Table 1, spleen cells were isolated from tumor-free BN×WF hybrid rats immunized twice (1 week between vaccinations) with BN7005-H1D2 tumor cells producing IL-18 and IL-12, respectively. Macrophages were isolated from the sample by allowing isolated spleen cells to adhere to the plastic surface of 96-well microtiter plates, at which point the non-adherent cells were removed.
# The purified adherent cells (6×10^5/microtiter well) were treated in vitro for 3 hours with 0.15 ug/ml CA4P before washing. […] These variables were used to choose an in vitro concentration that is equal to the average concentration in vivo after a 3 hour period. For example, after treatment with 2 mg/kg in vivo, the concentration would be a maximum of 0.18 ug/ml 1.5 hours later, and less than 1 ng/ml after 3 hours.
# The proliferative response of 3×10^5 admixed non-adherent cells (e.g. T-cells) stimulated for 4 days with SEA (0.05 ng/ml) was estimated as in Example 1. […] This effect is interpreted as due to a decrease of the suppressive effect of the IL-12 and IL-18 activated macrophages on T cell responses. […]
# [4] = system: BT4Cn tumor blood vessels; experiment: Tumor vascular shut-down, open tumor blood vessels 24 h after CA4P (FIG. 2B); type: in vivo, rat
# Protocol: FIG. 2B illustrates the percentage of open tumor blood vessels in an excised tumor 24 hours after administration of various doses of CA4P to a BT4Cn tumor bearing rat.
# Results of in vitro studies indicate that the dose of Combretastatin A4 Prodrug that is administered is critical for obtaining a specific immunological effect. The specific immunomodulatory properties of CA4P are only observed at a low dosage, whereas higher doses fail to remove the immunosuppressive effects of the established tumor or induce suppression of lymphocyte activity. […] Proliferation of spleen immune cells was monitored by 3-H-thymidine incorporation (CPM) after 5 days incubation. […] An analysis of tumor pathology was performed on BT4Cn tumor-bearing rats when the tumor had growth to a size of 300 mm^3. Rats received single intraperitoneal injections of various doses of CA4P. Twenty-four hours later they were injected with 0.25 ml of Fluo-Spheres bead in the tail vein and sacrificed after 3 min. Tumors were removed and prepared for cryosection. Eight μm cryosections were examined directly in a fluorescence microscope and vessel volume was determined (Springer, MP., Ip, TK., and Blau, HM). Angiogenesis monitored by perfusion with space-filling microbead suspension (Mol. Ther. 1: 82-87, 2000). […] Thus in a preferred embodiment, the dose at which CA4P is administered to achieve a desired immune enhancing effect without vascular shutdown is less than 5 mg/kg.
structure (smiles),measurement,setting,value
"COc1ccc(/C=C\c2cc(OC)c(OC)c(OC)c2)cc1OP(=O)([O-])[O-].[Na+].[Na+] [CA4P, CA4 phosphate disodium salt]",Proliferative response of spleen cells (3-H-thymidine incorporation),[1]; CA4P 2 mg/kg,particularly effective in enhancing the anti-tumor immune response
same,Proliferative response of spleen cells (3-H-thymidine incorporation),[1]; CA4P 5 mg/kg,some enhancement of a proliferative response
same,Nitric oxide production into supernatant,"[2]; Rat#1, Medium",7 µM
same,Nitric oxide production into supernatant,"[2]; Rat#1, SEA",8 µM
same,Nitric oxide production into supernatant,"[2]; Rat#2, Medium",6 µM
same,Nitric oxide production into supernatant,"[2]; Rat#2, SEA",7 µM
same,Animals with inhibitory effect on NO production,"[2]; parallel studies (FIG. 3), spleen cells, SEA 0.1 ng/ml, CA4P 0.15 μg/ml",all 4
same,Effect on NO produced,"[2]; spleen cell cultures exposed to SEA and CA4P, 2 animals studied",significant reduction of NO produced
same,Proliferative T cell response (CPM thymidine incorporation),"[3]; Rat#1, adherent spleen cells (MO) preincubated 3 h with CA4-P 0.15 μg/ml, then L1 nonadherent cells + SEA 0.05 ng/ml, 4 days",124K
same,Animals with stimulating effect on proliferative response,"[3]; parallel studies (FIG. 3), spleen cells stimulated with wild type tumor cells and SEA 0.1 ng/ml, CA4P 0.15 μg/ml",3 of 4
same,Enhancement of in vitro proliferative response of admixed non-adherent cells,[3]; preincubation of adherent cells (spleen macrophages) with CA4P,2 fold
same,Vascular shutdown,[4]; 2 mg/kg,no vascular shut down could be observed
same,Vascular shutdown,"[4]; doses below 4 mg/kg, single i.p. injection, 24 h",no significant vascular shutdown
same,Toxicity to microvessels and immune effect,"[4]; higher doses, 4-100 mg/kg in the rat",toxic to microvessels and immunosuppressive
